Like-named read-outs stand apart in the source and are kept apart here.
Key:
NCI-H1944 = assay: Cytotoxicity, NSCLC cell line NCI-H1944; format: cell-based; details: Homo sapiens
Procedure: (§1) Compounds were exposed at various concentrations for 72 hours, followed by a wash step. Fresh medium was added for growth. The cell was stained to determine the cell survival rate and compared with controls treated with medium only.
(§2) In particular, exponentially grown cells were inoculated in 96-well plates at a density of 2×10^3 cells/100 μl/well and incubated for 24 hours at 37° C. and under the conditions of 5% CO2, 95% air and 100% relative humidity before addition of 99 μl of culture solution. The compounds were dissolved in 100% DMSO at 200 times of the desired final test concentration. When the drug was added, an aliquot of 1 μl of the compound at the specified concentration was added to microwells already containing 199 μl of medium to obtain the reported final drug concentration. After adding the drug, plates were incubated for an additional 72 hours at 37° C., 5% CO2, 95% air and 100% relative humidity. The cell assay plate was left to balance for 30 minutes at room temperature and 100 μL of medium was removed from per well. 100 μl CTG reagent (CelltiterGlo kit) was added into each well. The plate was placed on a fast shaker and shaked for 2 min, and kept in dark at room temperature for 30 min. The chemiluminescence signal value was read by Envision instrument. […]

NCI-H2228 = assay: Cytotoxicity, NSCLC cell line NCI-H2228; format: cell-based; details: Homo sapiens
Procedure: as §1, §2

NCIH1755 = assay: Cytotoxicity, NSCLC cell line NCIH1755; format: cell-based; details: Homo sapiens, NCI-H1755
Procedure: as §1, §2

NCI-H1563 = assay: Cytotoxicity, NSCLC cell line NCI-H1563; format: cell-based; details: Homo sapiens
Procedure: as §1, §2

CAL12T = assay: Cytotoxicity, NSCLC cell line CAL12T; format: cell-based; details: Homo sapiens, CAL-12T
Procedure: as §1, §2

NCI-H1792 = assay: Cytotoxicity, NSCLC cell line NCI-H1792; format: cell-based; details: Homo sapiens
Procedure: as §1, §2

KP-2 = assay: Cytotoxicity, pancreatic cancer PA cells KP-2; format: cell-based; details: Homo sapiens
Procedure: as §1, §2

KP-3 = assay: Cytotoxicity, pancreatic cancer PA cells KP-3; format: cell-based; details: Homo sapiens
Procedure: as §1, §2

MIA PaCa-2 = assay: Cytotoxicity, pancreatic cancer PA cells MIA PaCa-2; format: cell-based; details: Homo sapiens
Procedure: as §1, §2

PL45 = assay: Cytotoxicity, pancreatic cancer PA cells PL45; format: cell-based; details: Homo sapiens
Procedure: as §1, §2

Panc 10.05 = assay: Cytotoxicity, pancreatic cancer PA cells Panc 10.05; format: cell-based; details: Homo sapiens, Panc1005
Procedure: as §1, §2

[1] = system: HuPrime model GA6201 human gastric cancer subcutaneous transplantation PDX tumor; assay: GA6201 human gastric cancer subcutaneous PDX model; format: in vivo, BALB/c nude mice
Procedure: Then the dose was changed to 10 mg/kg by intraperitoneal injection administration daily for 4 days (QD×4, Day14-Day17). The dose and mode of administration were then changed to 20 mg/kg via tail vein injection for one day (QD×1, Day18). After drug withdrawal for 10 days, the dose was changed again, and 50 mg/kg was administered via tail vein injection once a week for two weeks QW×2 (Day28, Day35).
The tumor volumes of mice from different groups were measured at different days and the average values were obtained.

[2] = system: human lung cancer NCI-H460 subcutaneous xenograft; assay: Human lung cancer NCI-H460 subcutaneous xenograft model, compound A; format: in vivo, BALB/c nude mice
Procedure: BALB/c nude mice were subcutaneously inoculated with human lung cancer NCI-H460 cells to establish human lung cancer subcutaneous transplantation tumor model. […] The test drug compound A 40 mg/kg group was administered by tail vein injection once every three weeks for 2 times, and observed for one week after the second administration. The test drug compound A 20 mg/kg group was administered by intraperitoneal injection once a day for 5 days continuously, and observed for 24 days. […] The administration dosage of compound A was determined according to the MTD test.
The tumor volumes of mice from each group were measured at different days and the average values were taken.

H460 cancer cells = assay: Cytotoxicity on H460 cancer cells, 72 h exposure, CTG; format: cell-based; details: Homo sapiens, NCI-H460
Procedure: The quantification value IC50 for cytotoxicity of a human tumor cell line in vitro was used to compare the cancer cell proliferation inhibition of compounds
as §1
In particular, exponentially grown cells were inoculated in 96-well plates at a density of 2×10^3 cells/100 μl/well and incubated for 24 hours at 37° C. and under the conditions of 5% CO2, 95% air and 100% relative humidity before addition of 99 μl of culture solution. The compounds were dissolved in 100% DMSO at 200 times of the desired final test concentration. When the drug was added, an aliquot of 1 μl of the compound at the specified concentration was added to microwells already containing 199 μl of medium to obtain the reported final drug concentration. After adding the drug, plates were incubated for an additional 72 hours at 37° C., 5% CO2, 95% air and 100% relative humidity. The cell assay plate was left to balance for 30 minutes at room temperature and 100 μL of medium was removed from per well. 100 μl CTG reagent (CelltiterGlo kit) was added into each well. […] The chemiluminescence signal value was read by Envision instrument.

[3] = system: human lung cancer NCI-H460-Luc2 intracranial transplantation tumor; details: for mean biofluorescence value / TGI: 11 days after grouping
Procedure: BALB/c nude mice were inoculated intracranially with human lung cancer NCI-H460-Luc2 cells to establish human lung cancer intracranial transplantation tumor model. […] The relative tumor inhibition rate TGI (%) was calculated based on tumor biofluorescence value and the efficacy was evaluated.

[4] = system: HuPrime pancreatic cancer PA3546 subcutaneous xenograft PDX tumor; assay: PA3546 human pancreatic cancer subcutaneous PDX model; details: for relative tumor inhibition rate TGI (%): Day 25
Procedure: BALB/c nude mice were subcutaneously inoculated with HuPrime® model PA3546 tumor blocks to establish human pancreatic cancer subcutaneous transplantation tumor model. […] Efficacy was evaluated according to the relative tumor inhibition rate TGI (%), and safety was evaluated according to the change in body weight and the death of animals.

O=[N+]([O-])c1ccc(C(OP(=O)(N2CC2)N2CC2)C(F)(F)F)c2ccccc12 (racemic) [Compound A]
IC50 (NCI-H1944): 0.538 µM | IC50 (NCI-H2228): 0.264 µM | IC50 (NCIH1755): 6.46 µM | IC50 (NCI-H1563): 4.45 µM | IC50 (CAL12T): 30.5 µM | IC50 (NCI-H1792): 4.79 µM | IC50 (KP-2): 29.7 µM | IC50 (KP-3): 26.2 µM | IC50 (MIA PaCa-2): 6.9 µM | IC50 (PL45): 17.1 µM | IC50 (Panc 10.05): 27.7 µM | tumor volume ([1]; Group 06, 5-50 mg/kg regimen, day 3): 121.79 mm^3 | tumor volume ([1]; Group 06, 5-50 mg/kg regimen, day 10): 153.46 mm^3 | tumor volume ([1]; Group 06, 5-50 mg/kg regimen, day 14): 191.17 mm^3 | tumor volume ([1]; Group 06, 5-50 mg/kg regimen, day 28): 280.86 mm^3 | tumor volume ([1]; Group 06, 5-50 mg/kg regimen, day 42): 300.46 mm^3 | tumor volume ([1]; Group 06, 5 then 10 mg/kg i.p., 20 and 50 mg/kg i.v. (Table 10), day 0): 94.24 mm^3 | relative tumor inhibition rate TGI (%) ([2]; 40 mg/kg, Q3W×2, IV, Day31): 66.87% | tumor volume ([2]; Test Group 7, 40 mg/kg IV, day 10): 184.06 mm^3 | tumor volume ([2]; Test Group 7, 40 mg/kg IV, day 14): 153.75 mm^3 | tumor volume ([2]; Test Group 7, 40 mg/kg IV, day 17): 159.72 mm^3 | tumor volume ([2]; Test Group 7, 40 mg/kg IV, day 21): 218.13 mm^3 | tumor volume ([2]; Test Group 7, 40 mg/kg IV, day 24): 291.07 mm^3 | tumor volume ([2]; Test Group 7, 40 mg/kg IV, day 28): 520.17 mm^3 | tumor volume ([2]; Test Group 7, 40 mg/kg IV, day 31): 580.70 mm^3 | tumor volume ([2]; Test Group 7, 40 mg/kg IV, day 35): 447.32 mm^3 | tumor volume ([2]; Test Group 7, 40 mg/kg, Q3W×2, IV, day 7): 143.84 mm^3 | tumor volume ([2]; Test Group 8, 20 mg/kg IP, day 10): 173.09 mm^3 | tumor volume ([2]; Test Group 8, 20 mg/kg IP, day 14): 152.99 mm^3 | tumor volume ([2]; Test Group 8, 20 mg/kg IP, day 17): 130.06 mm^3 | tumor volume ([2]; Test Group 8, 20 mg/kg IP, day 21): 129.66 mm^3 | tumor volume ([2]; Test Group 8, 20 mg/kg IP, day 24): 164.63 mm^3 | tumor volume ([2]; Test Group 8, 20 mg/kg IP, day 28): 272.20 mm^3 | tumor volume ([2]; Test Group 8, 20 mg/kg IP, day 31): 447.50 mm^3 | tumor volume ([2]; Test Group 8, 20 mg/kg IP, day 35): 651.58 mm^3 | tumor volume ([2]; Test Group 8, 20 mg/kg, QD×5×1 week, IP, day 7): 144.63 mm^3

O=[N+]([O-])c1ccc([C@@H](OP(=O)(N2CC2)N2CC2)C(F)(F)F)c2ccccc12 (single isomer, unassigned) [Compound C]
IC50 (H460 cancer cells): 0.0769 µM | mean biofluorescence value ([3]; 10 mg/kg tail vein QW×3): 7.07E+05 photon/second | TGI ([3]; 10 mg/kg tail vein): 99.82% | mean biofluorescence value ([3]; 20 mg/kg tail vein QW×3): 1.79E+05 photon/second | TGI ([3]; 20 mg/kg tail vein): 100.03% | mean biofluorescence value ([3]; 40 mg/kg tail vein QW×3): 1.04E+05 photon/second | TGI ([3]; 40 mg/kg tail vein): 100.05% | tolerability ([3]; single drug, 10-40 mg/kg): well tolerated | body weight loss / tolerability ([4]; 10 mg/kg (Group 3)): no significant body weight loss and were well tolerated | relative tumor inhibition rate TGI (%) ([4]; 10 mg/kg tail vein QW×3): 32.35% | body weight loss / death ([4]; 20 mg/kg (Group 4)): significant weight loss and even death of individual or part of mice | relative tumor inhibition rate TGI (%) ([4]; 20 mg/kg tail vein QW×3): 36.79% | body weight loss / death ([4]; 40 mg/kg (Group 5)): significant weight loss and even death of individual or part of mice | relative tumor inhibition rate TGI (%) ([4]; 40 mg/kg tail vein QW×3): 35.93%

From US20230339991A1, “HYPOXIA-ACTIVATED DNA ALKYLATING AGENT AND MEDICAL USE THEREOF” (ASCENTAWITS PHARMACEUTICALS, LTD., priority 2020, published 2023)
